From patent publication US12558348B2, “Bioactive phytochemicals” (Phytoquest Limited, priority 2019, dated 2026) come the findings set out here.

For the test, the system named is TNF-α. As to the kind of experiment: Production of TNF-α by human monocytic cell line THP-1. It counts as cell-based. How it is done: THP-1 cells are commercially available. Cultured cells can be placed in RPMI complete medium in microtitre plates (e.g. […] in 96 well plates) and after 24 hrs incubation, PMA (10 ng/mi) added to 96 well plate to differentiate THP-1 cells and to determine the effects on TNF-α and IL-10 production. The cells should be pre-treated with cucumber extract at, for example, 200 μg/ml to 25 μg/ml followed by 2 hr LPS (100 ng/ml) stimulation. Post incubation, the cell supernatant is aspirated from each of the wells into sterile micro centrifuge tubes and centrifuged at 1000 rpm for 2-3 mins to settle any cells if present. The cell supernatant is then used for evaluation of presence of TNF-α or IL-10 using ELISA. Sandwich ELISA plates coated with suitable antibody are widely available (e.g. R&D Systems, USA).
A second study indicated even greater activity for idoBR1 in human blood (significant at 0.01 μM) with pre-incubation. […] The data clearly indicate that idoBR1 can inhibit the production of TNF-α in human blood. Thus, it appears that it may be a potent anti-inflammatory agent. It also appears that it may be acting via a novel mechanism distinct from the steroid receptor pathways.

One may read the inhibition as the share of the control response that was lost under treatment.

Consider `CC#C[C@]1(O)CC[C@H]2[C@@H]3CCC4=CC(=O)CCC4=C3[C@@H](c3ccc(N(C)C)cc3)C[C@@]21C` [Mifepristone, reference compound], for which the “effect on TNF-α production from THP-1 cells” value (alone with LPS) is “greatly amplified”.
On to `C[C@@H]1C[C@H]2[C@@H]3CCC4=CC(=O)C=C[C@]4(C)[C@@]3(F)[C@@H](O)C[C@]2(C)[C@@]1(O)C(=O)CO` [dexamethasone, reference compound], for which the inhibition at 50 µM (Homo sapiens, THP-1, 50 μM, identical pretreatment) was greater than 65%.
